Results as given in ChEMBL document CHEMBL3046841, “The synthesis and screening of the antimicrobial activity of some novel 3-(furan-2-yl)-1-(aryl)-3-(phenylthio) propan-1-one derivatives” (2011).
≈ marks a conversion by molar mass, not a printed value.

Experiments:
Assay type in all cases: functional
[1] = test system: Bacillus cereus; assay: Antimicrobial activity against Bacillus cereus DSM 4312 after 24 hr by serial microdilution method; conditions: DSM 4312, 24 h
[2] = test system: Cyberlindnera jadinii; assay: Antimicrobial activity against Cyberlindnera jadinii KUEN 1031 at 105 ug/disc after 48 hr by disk diffusion method; conditions: Williopsis jadinii, KUEN 1031, 48 h; read-out: IZ
[3] = test system: Streptococcus pyogenes; assay: Antimicrobial activity against Streptococcus pyogenes ATCC 176 after 24 hr by serial microdilution method; conditions: ATCC 176, 24 h
[4] = test system: Salmonella enteritidis; assay: Antimicrobial activity against Salmonella enterica subsp. enterica serovar Enteritidis ATCC 13076 after 24 hr by serial microdilution method; conditions: ATCC 13076, 24 h
[5] = test system: Salmonella enteritidis; assay: Antimicrobial activity against Salmonella enterica subsp. enterica serovar Enteritidis ATCC 13076 at 105 ug/disk after 24 hr by disk diffusion method; conditions: ATCC 13076, 24 h, read-out: IZ
[6] = test system: Candida albicans; assay: Antimicrobial activity against Candida albicans ATCC 1213 by serial microdilution method
[7] = test system: Proteus vulgaris; assay: Antimicrobial activity against Proteus vulgaris KUEN 1329 after 24 hr by serial microdilution method; conditions: KUEN 1329, 24 h
[8] = test system: Pseudomonas aeruginosa; assay: Antimicrobial activity against Pseudomonas aeruginosa ATCC 9027 after 24 hr by serial microdilution method; conditions: ATCC 9027, 24 h
[9] = test system: Pseudomonas aeruginosa; assay: Antimicrobial activity against Pseudomonas aeruginosa ATCC 27859 after 24 hr by serial microdilution method; conditions: ATCC 27859, 24 h
[10] = test system: Bacillus subtilis; assay: Antimicrobial activity against Bacillus subtilis ATCC 6633 after 24 hr by serial microdilution method; conditions: ATCC 6633, 24 h
[11] = test system: Escherichia coli; assay: Antimicrobial activity against Escherichia coli 111 after 24 hr by serial microdilution method; conditions: Escherichia coli, 111, 24 h
[12] = test system: Candida albicans; assay: Antimicrobial activity against Candida albicans ATCC 1213 at 105 ug/disk after 48 hr by disk diffusion method; conditions: ATCC 1213, 48 h, read-out: IZ
[13] = test system: Bacillus subtilis; assay: Antimicrobial activity against Bacillus subtilis ATCC 6633 at 105 ug/disk after 24 hr by disk diffusion method; conditions: ATCC 6633, 24 h, read-out: IZ
[14] = test system: Proteus vulgaris; assay: Antimicrobial activity against Proteus vulgaris KUEN 1329 at 105 ug/disk after 24 hr by disk diffusion method; conditions: KUEN 1329, 24 h, read-out: IZ
[15] = test system: Staphylococcus aureus; assay: Antimicrobial activity against Staphylococcus aureus ATCC 29213 after 24 hr by serial microdilution method; conditions: ATCC 29213, 24 h
[16] = test system: Escherichia coli; assay: Antimicrobial activity against Escherichia coli 111 at 105 ug/disk after 24 hr by disk diffusion method; conditions: Escherichia coli, 111, 24 h; read-out: IZ
[17] = test system: Cyberlindnera jadinii; assay: Antimicrobial activity against Cyberlindnera jadinii KUEN 1031 serial microdilution method; conditions: Williopsis jadinii
[18] = test system: Pseudomonas aeruginosa; assay: Antimicrobial activity against Pseudomonas aeruginosa ATCC 9027 at 105 ug/disk after 24 hr by disk diffusion method; conditions: ATCC 9027, 24 h, read-out: IZ
[19] = test system: Streptococcus pyogenes; assay: Antimicrobial activity against Streptococcus pyogenes ATCC 176 at 105 ug/disc after 24 hr by disc diffusion method; conditions: ATCC 176, 24 h, read-out: IZ
[20] = test system: Staphylococcus aureus; assay: Antimicrobial activity against Staphylococcus aureus ATCC 29213 at 105 ug/disc after 24 hr by disk diffusion method; conditions: ATCC 29213, 24 h, read-out: IZ
[21] = test system: Bacillus cereus; assay: Antimicrobial activity against Bacillus cereus DSM 4312 at 105 ug/disk after 24 hr by disk diffusion method; conditions: DSM 4312, 24 h, read-out: IZ
[22] = test system: Pseudomonas aeruginosa; assay: Antimicrobial activity against Pseudomonas aeruginosa ATCC 27859 at 105 ug/disk after 24 hr by disk diffusion method; conditions: ATCC 27859, 24 h, read-out: IZ

Row | SMILES | MIC [1] | zone of inhibition at 105 µg/disc [2] | MIC [3] | MIC [4] | zone of inhibition at 105 µg/disc [5] | MIC [6] | MIC [7] | MIC [8] | MIC [9] | MIC [10] | MIC [11] | zone of inhibition at 105 µg/disc [12] | zone of inhibition at 105 µg/disc [14] | MIC [15] | zone of inhibition at 105 µg/disc [16] | MIC [17] | zone of inhibition at 105 µg/disc [18] | zone of inhibition at 105 µg/disc [21] | also measured
1 | COc1cccc(C(=O)CC(Sc2ccccc2)c2ccco2)c1 (configuration not stated) | 62.5 µg/mL (≈ 185 µM) | 13 mm | 7.81 µg/mL (≈ 23.1 µM) | 62.5 µg/mL (≈ 185 µM) | 17 mm | 15.6 µg/mL (≈ 46.2 µM) | 31.2 µg/mL (≈ 92.3 µM) | > 125 µg/mL | 125 µg/mL (≈ 369 µM) | 62.5 µg/mL (≈ 185 µM) | 31.2 µg/mL (≈ 92.3 µM) | 17 mm | 14 mm | > 125 µg/mL | 14 mm | 15.6 µg/mL (≈ 46.2 µM) | – | – | zone of inhibition at 105 µg/disc [13]: 12 mm
2 | COc1ccc(C(=O)CC(Sc2ccccc2)c2ccco2)cc1 (configuration not stated) | 62.5 µg/mL (≈ 185 µM) | 12 mm | > 125 µg/mL | > 125 µg/mL | – | > 125 µg/mL | 62.5 µg/mL (≈ 185 µM) | 62.5 µg/mL (≈ 185 µM) | 62.5 µg/mL (≈ 185 µM) | 125 µg/mL (≈ 369 µM) | 62.5 µg/mL (≈ 185 µM) | 12 mm | – | > 125 µg/mL | 10 mm | 125 µg/mL (≈ 369 µM) | 13 mm | – | zone of inhibition at 105 µg/disc [19]: 13 mm
3 | O=C(CC(Sc1ccccc1)c1ccco1)c1ccccc1Cl (configuration not stated) | 31.2 µg/mL (≈ 91.1 µM) | 13 mm | 15.6 µg/mL (≈ 45.6 µM) | 15.6 µg/mL (≈ 45.6 µM) | 18 mm | 15.6 µg/mL (≈ 45.6 µM) | 31.2 µg/mL (≈ 91.1 µM) | 31.2 µg/mL (≈ 91.1 µM) | 125 µg/mL (≈ 365 µM) | 31.2 µg/mL (≈ 91.1 µM) | > 125 µg/mL | 16 mm | 16 mm | 7.81 µg/mL (≈ 22.8 µM) | – | 125 µg/mL (≈ 365 µM) | 14 mm | 11 mm | zone of inhibition at 105 µg/disc [20]: 18 mm; zone of inhibition at 105 µg/disc [13]: 15 mm; zone of inhibition at 105 µg/disc [22]: 14 mm
4 | O=C(CC(Sc1ccccc1)c1ccco1)c1ccc(Cl)cc1 (configuration not stated) | 31.2 µg/mL (≈ 91.1 µM) | 14 mm | 125 µg/mL (≈ 365 µM) | 62.5 µg/mL (≈ 182 µM) | 17 mm | 62.5 µg/mL (≈ 182 µM) | 7.81 µg/mL (≈ 22.8 µM) | > 125 µg/mL | > 125 µg/mL | > 125 µg/mL | 62.5 µg/mL (≈ 182 µM) | 14 mm | 14 mm | > 125 µg/mL | 10 mm | 62.5 µg/mL (≈ 182 µM) | 15 mm | 10 mm | zone of inhibition at 105 µg/disc [19]: 13 mm
5 | O=C(CC(Sc1ccccc1)c1ccco1)c1cccc(Br)c1 (configuration not stated) | 31.2 µg/mL (≈ 80.7 µM) | 14 mm | 31.2 µg/mL (≈ 80.7 µM) | 31.2 µg/mL (≈ 80.7 µM) | 16 mm | > 125 µg/mL | 31.2 µg/mL (≈ 80.7 µM) | 15.6 µg/mL (≈ 40.3 µM) | > 125 µg/mL | 31.2 µg/mL (≈ 80.7 µM) | > 125 µg/mL | 16 mm | 15 mm | 15.6 µg/mL (≈ 40.3 µM) | – | > 125 µg/mL | 16 mm | 13 mm | zone of inhibition at 105 µg/disc [20]: 16 mm
6 | O=C(CC(Sc1ccccc1)c1ccco1)c1ccc(Br)cc1 (configuration not stated) | 62.5 µg/mL (≈ 161 µM) | 13 mm | 7.81 µg/mL (≈ 20.2 µM) | 62.5 µg/mL (≈ 161 µM) | 17 mm | 15.6 µg/mL (≈ 40.3 µM) | 15.6 µg/mL (≈ 40.3 µM) | 31.2 µg/mL (≈ 80.7 µM) | 31.2 µg/mL (≈ 80.7 µM) | 31.2 µg/mL (≈ 80.7 µM) | > 125 µg/mL | 11 mm | 15 mm | > 125 µg/mL | – | 125 µg/mL (≈ 323 µM) | 15 mm | – | –
7 | O=C(CC(Sc1ccccc1)c1ccco1)c1ccccc1O (configuration not stated) | 15.6 µg/mL (≈ 48.2 µM) | 15 mm | 3.9 µg/mL (≈ 12 µM) | 31.2 µg/mL (≈ 96.3 µM) | 19 mm | 125 µg/mL (≈ 385 µM) | 7.81 µg/mL (≈ 24.1 µM) | > 125 µg/mL | 125 µg/mL (≈ 385 µM) | 15.6 µg/mL (≈ 48.2 µM) | 15.6 µg/mL (≈ 48.2 µM) | 21 mm | 18 mm | 15.6 µg/mL (≈ 48.2 µM) | – | 7.81 µg/mL (≈ 24.1 µM) | 14 mm | 15 mm | zone of inhibition at 105 µg/disc [20]: 16 mm; zone of inhibition at 105 µg/disc [19]: 17 mm; zone of inhibition at 105 µg/disc [13]: 17 mm; zone of inhibition at 105 µg/disc [22]: 17 mm
8 | O=C(CC(Sc1ccccc1)c1ccco1)c1ccc(O)cc1 (configuration not stated) | 31.2 µg/mL (≈ 96.3 µM) | 13 mm | 7.81 µg/mL (≈ 24.1 µM) | 62.5 µg/mL (≈ 193 µM) | 17 mm | 15.6 µg/mL (≈ 48.2 µM) | 7.81 µg/mL (≈ 24.1 µM) | 62.5 µg/mL (≈ 193 µM) | 62.5 µg/mL (≈ 193 µM) | 31.2 µg/mL (≈ 96.3 µM) | 62.5 µg/mL (≈ 193 µM) | 20 mm | 17 mm | 31.2 µg/mL (≈ 96.3 µM) | 10 mm | 62.5 µg/mL (≈ 193 µM) | 14 mm | – | –
9 | CC1(C)S[C@@H]2[C@H](NC(=O)[C@H](N)c3ccccc3)C(=O)N2[C@H]1C(=O)O [AMPICILLIN] | > 125 µg/mL | – | 3.9 µg/mL (≈ 11.2 µM) | > 125 µg/mL | – | > 125 µg/mL | 15.6 µg/mL (≈ 44.7 µM) | 7.81 µg/mL (≈ 22.4 µM) | > 125 µg/mL | > 125 µg/mL | > 125 µg/mL | – | – | > 125 µg/mL | – | 7.81 µg/mL (≈ 22.4 µM) | – | – | –
10 | CO/N=C(\C(=O)N[C@@H]1C(=O)N2C(C(=O)O)=C(CSc3nc(=O)c(O)nn3C)CS[C@H]12)c1csc(N)n1 [CEFTRIAXONE] | > 125 µg/mL | – | 3.9 µg/mL (≈ 7.03 µM) | 125 µg/mL (≈ 225 µM) | – | > 125 µg/mL | 15.6 µg/mL (≈ 28.2 µM) | 15.6 µg/mL (≈ 28.2 µM) | > 125 µg/mL | 3.9 µg/mL (≈ 7.03 µM) | > 125 µg/mL | – | – | > 125 µg/mL | – | 15.6 µg/mL (≈ 28.2 µM) | – | – | –
11 | CN(C)[C@@H]1C(O)=C(C(N)=O)C(=O)[C@@]2(O)C(O)=C3C(=O)c4c(O)cccc4[C@@](C)(O)[C@H]3C[C@@H]12 [TETRACYCLINE] | 62.5 µg/mL (≈ 141 µM) | – | 3.9 µg/mL (≈ 8.78 µM) | 7.81 µg/mL (≈ 17.6 µM) | – | 125 µg/mL (≈ 281 µM) | 3.9 µg/mL (≈ 8.78 µM) | 3.9 µg/mL (≈ 8.78 µM) | > 125 µg/mL | 15.6 µg/mL (≈ 35.1 µM) | 125 µg/mL (≈ 281 µM) | – | – | 125 µg/mL (≈ 281 µM) | – | 15.6 µg/mL (≈ 35.1 µM) | – | – | –
